According to the supplement of paper PMC10307832:

Tests used:
Assay in all cases: relative viability (nuclei count vs DMSO), 5 days (fraction); higher = more cells survive
[1] = compound: Cc1ccc(-n2nc(C(C)(C)C)cc2NC(=O)Nc2ccc(OCCN3CCOCC3)c3ccccc23)cc1 [Doramapimod] + CS(=O)(=O)N1CCN(Cc2cc3nc(-c4cccc5[nH]ncc45)nc(N4CCOCC4)c3s2)CC1 [Pictilisib] (partner 1 µM)
Summary of the method: (§1)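 After 5 days of treatment, lung cancer cells in 1536-well plates were fixed and stained in a single step (final 0.05% Triton X-100, 1% formaldehyde, 1 ug/ml Hoechst) and their nuclei counted on 4× images. Treatment had been applied by pin tool the day after seeding as one drug alone or as a fixed anchor-drug dose with five library-drug doses (not always all listed) in √10 steps. Relative viability is the nuclei count of treated wells divided by that of vehicle wells, and values are medians of duplicate plates.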

[2] = compound: Cn1c(Nc2ccc(C(F)(F)F)cc2)nc2cc(Oc3ccnc(-c4ncc(C(F)(F)F)[nH]4)c3)ccc21 [RAF265] + CC(=O)Nc1cccc(-n2c(=O)n(C3CC3)c(=O)c3c(Nc4ccc(I)cc4F)n(C)c(=O)c(C)c32)c1 [Trametinib] (partner 0.02 µM)
Summary of the method: as §1

[3] = compound: C1=CC=C2C(=C1)C=CC(=C2SSC3=C(C=CC4=CC=CC=C43)O)O [IPA-3] + O=C(c1cc(Cc2n[nH]c(=O)c3ccccc23)ccc1F)N1CCN(C(=O)C2CC2)CC1 [Olaparib] (partner 8 µM)
Summary of the method: as §1

[4] = compound: Cc1ccc(-n2nc(C(C)(C)C)cc2NC(=O)Nc2ccc(OCCN3CCOCC3)c3ccccc23)cc1 [Doramapimod] + Nc1nc2[nH]cc(CCc3ccc(C(=O)N[C@@H](CCC(=O)O)C(=O)O)cc3)c2c(=O)[nH]1 [Pemetrexed] (partner 0.2 µM)
Summary of the method: as §1

| Cell Line | relative viability ([1]; first compound 0.02 µM) | relative viability ([1]; first compound 0.06325 µM) | relative viability ([1]; first compound 0.2 µM) | relative viability ([1]; first compound 0.6325 µM) | relative viability ([1]; first compound 2 µM) | relative viability ([2]; first compound 0.01 µM) | relative viability ([2]; first compound 0.03162 µM) | relative viability ([2]; first compound 0.1 µM) | relative viability ([2]; first compound 0.3162 µM) | relative viability ([2]; first compound 1 µM) | relative viability ([3]; first compound 0.2 µM) | relative viability ([3]; first compound 0.6325 µM) | relative viability ([3]; first compound 6.325 µM) | relative viability ([3]; first compound 20 µM) | relative viability ([4]; first compound 0.02 µM) | relative viability ([4]; first compound 0.06325 µM) | relative viability ([4]; first compound 0.2 µM) | relative viability ([4]; first compound 0.6325 µM) | relative viability ([4]; first compound 2 µM) | relative viability ([3]; first compound 2 µM) |
| --- | --- | --- | --- | --- | --- | --- | --- | --- | --- | --- | --- | --- | --- | --- | --- | --- | --- | --- | --- | --- |
| NCI-H520 | 0.238 | 0.278 | 0.252 | 0.288 | 0.22 | 0.684 | 0.65 | 0.508 | 0.519 | 0.338 | 0.322 | 0.278 | 0.367 | 0.298 | 0.607 | 0.638 | 0.732 | 0.537 | 0.683 | – |
| LU99A | 0.348 | 0.303 | 0.311 | 0.307 | 0.263 | 0.551 | 0.469 | 0.314 | 0.288 | 0.21 | 0.304 | 0.268 | 0.277 | 0.249 | 0.175 | 0.196 | 0.155 | 0.18 | 0.323 | 0.291 |
| NCI-H1666 | 0.502 | 0.397 | 0.37 | 0.369 | 0.312 | 0.89 | 0.852 | 0.784 | 0.839 | 0.656 | 0.854 | 0.655 | 0.749 | 0.836 | 0.841 | 0.916 | 0.819 | 0.948 | 0.913 | 0.764 |
| NCI-H2170 | 0.332 | 0.325 | 0.295 | 0.438 | 0.269 | 0.928 | 0.86 | 0.792 | 0.666 | 0.56 | 0.67 | 0.561 | 0.614 | 0.624 | 0.278 | 0.261 | 0.256 | 0.28 | 0.259 | 0.646 |
| NCI-H2342 | – | – | – | – | – | 0.75 | 0.715 | 0.786 | 0.698 | 0.682 | 0.468 | 0.4 | 0.46 | 0.473 | 0.733 | 0.759 | 0.789 | 0.788 | 0.784 | 0.559 |
| LCLC-97TM1 | 0.195 | 0.162 | 0.177 | 0.18 | 0.206 | 0.225 | 0.151 | 0.149 | 0.16 | 0.0901 | 0.397 | 0.337 | 0.265 | 0.359 | 0.181 | 0.171 | 0.164 | 0.184 | 0.156 | 0.475 |
| NCI-H1299 | 0.769 | 0.444 | 0.751 | 0.597 | 0.521 | – | – | – | – | – | 1.02 | 0.953 | 0.963 | 0.983 | – | – | – | – | – | 0.983 |
| NCI-H3122 | 0.578 | 0.548 | 0.586 | 0.694 | 0.65 | 0.26 | 0.203 | 0.21 | 0.208 | 0.173 | 0.655 | 0.608 | 0.644 | 0.588 | 0.197 | 0.207 | 0.187 | 0.207 | 0.196 | 0.57 |
| NCI-H1395 | 0.567 | 0.599 | 0.601 | 0.624 | 0.545 | 1.12 | 0.933 | 1.1 | 0.968 | 0.685 | 0.507 | 0.456 | 0.474 | 0.457 | 0.82 | 1.04 | 0.889 | 0.836 | 0.696 | 0.465 |
| Calu-6 | 0.89 | 0.891 | 0.91 | 0.997 | 0.844 | – | – | – | – | – | 0.629 | 0.503 | 0.596 | 0.426 | – | – | – | – | – | 0.617 |
| NCI-H1703 | 0.234 | 0.226 | 0.236 | 0.248 | 0.215 | – | – | – | – | – | 0.807 | 0.479 | 0.459 | 0.581 | – | – | – | – | – | 0.38 |
| NCI-H727 | 0.213 | 0.5 | 0.408 | 0.321 | 0.411 | 0.403 | 0.371 | 0.392 | 0.334 | 0.317 | 0.659 | 0.946 | 0.656 | 0.698 | – | – | – | – | – | 0.638 |
| NCI-H1648 | – | – | – | – | – | 0.534 | 0.455 | 0.535 | 0.387 | 0.29 | 1.05 | 0.906 | 0.739 | 0.873 | 0.745 | 0.87 | 0.584 | 0.705 | 0.632 | 0.84 |
| NCI-H522 | – | – | – | – | – | 0.743 | 0.77 | 0.613 | 0.679 | 0.657 | 0.52 | 0.663 | 0.571 | 0.671 | 0.909 | 1.05 | 0.797 | 0.715 | 0.796 | 0.699 |
| ABC-1 | 0.847 | 0.614 | 0.646 | 0.757 | 0.737 | – | – | – | – | – | 0.827 | 0.78 | 0.658 | 0.89 | – | – | – | – | – | 0.582 |
| SW 900 | – | – | – | – | – | 0.83 | 0.994 | 0.836 | 0.679 | 0.52 | 0.684 | 0.683 | 0.832 | 1.03 | 0.513 | 0.513 | 0.478 | 0.502 | 0.479 | 0.811 |
| IA-LM | 0.176 | 0.257 | – | 0.343 | 0.288 | – | – | – | – | – | 1.22 | 0.814 | 0.651 | 0.814 | – | – | – | – | – | 0.906 |
| A549 | 0.533 | 0.492 | 0.522 | 0.497 | 0.421 | – | – | – | – | – | 0.375 | 0.312 | 0.331 | 0.414 | – | – | – | – | – | 0.302 |
